For one test, the system named is EZH2 and H3K27me3. Nature of the test: Western Blot for EZH2 and H3K27me3 on whole cell extracts. It is filed as cell-based, human. The note with it: 10 μM GSK126, 7 days in culture. How it is done: For Western blotting, 25 μg of protein extract per sample was denatured with heat and reducing agents, separated on a 4-12% acrylimide gel and transferred to nitrocellulose. Antibodies used for Western blotting were: EZH2 (Cell Signalling), β-actin (AbCAM) and H3K27me3 (Upstate).
Whole cell extracts were made in RIPA buffer (0.5% Deoxycholate, 1% IGEPAL-CA630, 0.1% sodium dodecyl sulfate, 150 mM NaCL, 50 mM Tris-8.1), lysates were cleared by centrifugation, and protein concentrations were quantified with the Pierce BCA Protein Assay Kit (Thermo). For Western blotting, 25 μg of protein extract per sample was denatured with heat and reducing agents, separated on a 4-12% acrylimide gel (BioRad) and transferred to nitrocellulose (GE Healthcare). Antibodies used for Western blotting were: EZH2 (clone D2C9; Cell Signaling; 1:200), Histone H3 (polyclonal; AbCAM ab1791; 1:2000) and H3K27me3 (polyclonal; Millipore 07-449; 1:1000) all incubated overnight at 4° C. Secondary antibody, anti-rabbit-HRP (Santa Cruz sc-2313; 1:5,000), was incubated for 1 hour at room temperature. After washing, chemi-luminescence was visualized with Western Lightning Plus-ECL (PerkinElmer) and exposure onto KODAK BioMax XAR™ film.
(In general: A western blot detects proteins with antibodies after separation by electrophoresis.)

A further test deals with human NSCLC lines. Briefly: Cytotox assays: chemotherapy dose response curves with or without EZH2 inhibitor, 4 days. It is filed as cell-based. The conditions noted are these: for IC50: various NSCLC cell lines, 4 days, read-out: etoposide IC50. The method, then: Cell lines were dissociated, counted and plated at 5000 cells per well in flat bottom opaque tissue culture treated 96 well plates (CytoOne). Edge wells were filled with PBS. The following day, 2× drug diluted in media was added to each well such that the well then contained 100 ul media with 1× drug concentration. After 4 days, Cell Titer Glo™ (Promega) was added and luminescence was read on a BioTec plate reader to determine relative cell number in each well. Data were averaged for triplicate or quadruplicate technical replicates, normalized to the untreated wells and input into GraphPad Prism software to extrapolate IC50.
Cell lines were dissociated, counted and plated at 5000 cells per well in flat bottom opaque tissue culture treated 96 well plates (CytoOne). Edge wells were filled with PBS. The following day, 2× drug diluted in media was added to each well such that the well then contained 100 ul media with 1× drug concentration at the following doses: etoposide; 0, 0.1, 1, 3, 5, 7, 10, 50, 100, 500 μM, cisplatin; 0, 0.1, 1, 5, 10, 30, 70, 100, 500 μM, or doxorubicin; 0, 0.01, 0.1, 0.5, 1, 3, 5, 7, 10, 50 μM. […] Data were averaged for triplicate or quadruplicate technical replicates and normalized to the untreated wells. Results from three or four independent biological replicate experiments were input into […] PRISM™ software to extrapolate IC50 and s.e.m. of IC50 for a given cell line.

Test [1] relates to BRG1 mutant and BRG1 wild-type cell lines. Nature of the test: Gefitinib dose response curves, 4 days. It is filed as cell-based, human. The conditions noted are these: data not shown.

Like-named read-outs stand apart in the source and are kept apart here.

Take `CC[C@H](C)n1cc(C)c2c(C(=O)NCc3c(C)cc(C)[nH]c3=O)cc(-c3ccc(N4CCNCC4)nc3)cc21` [GSK126]: in the test with EZH2 and H3K27me3, the EZH2 levels entry is reported as “remained unchanged” and the H3K27me3 levels entry is listed as “marked decrease”. For the same compound, the “etoposide dose response: classes of GSK126 treated cell lines” value with human NSCLC lines (10 μM GSK126) is “same TopoII inhibitor-sensitized and -protected classes”.
As to `N.N.[Cl][Pt][Cl]` [cisplatin], the “cisplatin IC30” value in the test with human NSCLC lines (NSCLC cell lines, approximate) is approximately 5 µM.
With `COc1cc([C@@H]2c3cc4c(cc3[C@@H](O[C@@H]3O[C@@H]5CO[C@@H](C)O[C@H]5[C@H](O)[C@H]3O)[C@H]3COC(=O)[C@H]23)OCO4)cc(OC)c1O` [etoposide], the IC50 (usually the point on the concentration scale where inhibition reaches its midpoint) with human NSCLC lines (Homo sapiens, 96 h, approximate) is approximately 10 µM; in the test on human NSCLC lines (approximate) it was approximately 5 µM.
Consider `COc1cc2ncnc(Nc3ccc(F)c(Cl)c3)c2cc1OCCCN1CCOCC1` [gefitinib], for which, in test [1], the “gefitinib sensitivity of BRG1 mutant vs BRG1 wild-type cell lines” value is given as “slightly more sensitive”.

The values are drawn from patent publication US9895390B2, “Methods and assays for combination treatment of cancer” (CHILDREN'S MEDICAL CENTER CORPORATION, priority 2012, dated 2018).
